# Measurements published in paper PMC3199943, “Screening the MayBridge Rule of 3 Fragment Library for Compounds That Interact with the Trypanosoma brucei myo-Inositol-3-Phosphate Synthase and/or Show Trypanocidal Activity” (Molecular Biology International, 2011).
# Where two headings read alike, the source gives them in different places.
# Tests used:
# [1] = test system: HeLa cells; assay: cells; conditions: for viability at 500 µM: 65 h
# Experimental: (§1) Cytotoxic effects against HeLa and A549 cells were determined in a similar manner. Briefly, the cells were cultured in DMEM supplemented with 10% FCS and 2 mM L-Glutamine. Cells were plated at initial cell concentration of 2 × 10^4 cells/well and incubated with the compounds for ~65 hours prior to addition of Alamar Blue solution for a further 5 hours.
# [2] = test system: A549 cells; assay: Cytotoxicity against A549 cells, Alamar Blue; type: cell-based; conditions: for viability at 500 µM: Homo sapiens, A549, 65 h
# Experimental: as §1
# [3] = Supplementary Table 1, compound 0.5 mM, percentage of controls, mean ± SD (n=3) or SE (n=2)
# [4] = Supplementary Table 1, compound 0.5 mM, percentage of controls (n=1)
# [5] = Homo sapiens, HeLa, read-out: HeLa Cells Alamar Blue
Compound,"viability at 500 µM [1, 5] [%]","viability at 500 µM [2, 4] [%]",also measured
"Cc1c(CO)cnn1-c1ccccc1 [compound 523, (5‐methyl‐1‐phenyl‐1H‐pyrazol‐4‐yl)methanol]",,,"HeLa Cells Alamar Blue [1, 3]: 75.9 ± 13.5 percentage of controls; A549 Cells Alamar Blue [2, 4]: 57.2 percentage of controls"
"Cc1cc(N)on1 [compound 10, 3‐methylisoxazol‐5‐amine]",66 ± 4.6,87.2,
"Nc1cc(Cl)cc(Cl)c1 [compound 282, 3,5‐dichloroaniline]",86.4 ± 8.5,66.5,
"NC(=O)c1ccccc1Cl [compound 230, 2‐chlorobenzamide]",104 ± 8.8,92.9,
"Cc1cc(CN)no1 [compound 33, (5‐methyl‐3‐isoxazolyl)methylamine]",64.3 ± 18.4,75.6,
"CC(=O)Nc1ccccc1F [compound 212, N1‐(2‐fluorophenyl)acetamide]",80.6 ± 6.6,65.4,
"Cn1nc(-c2ccccc2)cc1N [compound 376, 1‐methyl‐3‐phenyl‐1H‐pyrazol‐5‐amine]",82.6 ± 4.6,64.7,
"CCc1nc(C)c[nH]1 [compound 25, 2‐ethyl‐4‐methyl‐1H‐imidazole]",98 ± 7.8,83.9,
"NCCc1cccc2c1OCC2 [compound 293, 2,3‐Dihydrobenzo[b]furan‐7‐ethylamine]",10.8 ± 0.1,19.8,
"CNCc1ccc2ncccc2c1 [compound 366, N‐methyl‐N‐(quinolin‐6‐ylmethyl)amine]",64.6 ± 11.4,74.6,
"O=C1N[C@@H](Cc2ccccc2)CO1 [compound 421, (S)‐4‐BENZYL‐2‐OXAZOLIDINONE]",86 ± 5.1,80.2,
"O=C(O)C1CC2CC1CCC2O (stereo not shown) [compound 345, 2‐hydroxybicyclo[3.2.1]octane‐6‐carboxylic acid]",,,"HeLa Cells Alamar Blue [1, 3]: 87.4 ± 13 percentage of controls; A549 Cells Alamar Blue [2, 4]: 127 percentage of controls"
"Nc1ccc2c(c1)OCCCO2 [compound 308, 3,4‐dihydro‐2H‐1,5‐benzodioxepin‐7‐amine]",,,"HeLa Cells Alamar Blue [1, 3]: 98.7 ± 6.1 percentage of controls; A549 Cells Alamar Blue [2, 4]: 82.8 percentage of controls"
"N#Cc1ccc(-c2ccccc2)nc1 [compound 456, 6‐phenylnicotinonitrile]",33.9 ± 6.9,67.1,
"Cc1ccc(C(=O)O)cc1Cl [compound 351, 3‐chloro‐4‐methylbenzoic acid]",88.2 ± 17.9,112,
"OC12CC3CC(CC(C3)C1)C2 [compound 209, adamantan‐1‐ol]",92.2 ± 6.7,76.1,
"OCc1nccn1Cc1ccccc1 [compound 526, (1‐benzyl‐1H‐imidazol‐2‐yl)methanol]",81 ± 13.3,58,
"O=C(O)CSc1ccc(Cl)cc1 [compound 641, 2‐[(4‐chlorophenyl)thio]acetic acid]",105 ± 3.7,119,
"NCc1ccc(-n2cccc2)cc1 [compound 365, 4‐(1H‐pyrrol‐1‐yl)benzylamine]",50.9 ± 11,94.4,"CC50 ([1]; Homo sapiens, HeLa, read-out: HeLa ED50): 71.8 ± 3.7 µM"

Compound,"viability at 500 µM [1, 5] [%]","viability at 500 µM [2, 4] [%]",also measured
"O=C(O)c1cc2ccccc2[nH]1 [compound 275, 1H‐indole‐2‐carboxylic acid]",89.7 ± 16.4,67.3,
"NCc1cccc(CN2CCCCC2)c1 [compound 655, 3‐piperidin‐1‐ylmethyl benzylamine]",73.7 ± 15.9,126,
"O=C(C1CCNCC1)N1CCCC1 [compound 469, 4‐piperidinyl(1‐pyrrolidinyl)methanone]",99.5 ± 8.7,86.1,
"O=C(O)c1cccc(-c2ccsc2)c1 [compound 650, 3‐thien‐3‐ylbenzoic acid]",114 ± 15.9,165,
"Oc1ccc(-n2ccnc2)cc1 [compound 266, 4‐(1H‐imidazol‐1‐yl)phenol]",83 ± 19.8,108,
"OCC1CCc2ccccc2O1 (stereo not shown) [compound 299, 3,4‐dihydro‐2H‐chromen‐2‐ylmethanol]",85.1 ± 14.7,80.3,
"O=C1CCOc2ccc(F)cc21 [compound 318, 6‐fluorochroman‐4‐one]",104 ± 16.4,99,
"c1ccc2c(c1)CCO2 [compound 49, 2,3‐dihydrobenzo[b]furan]",102 ± 8.6,87.3,
"N#CN1CCCC1 [compound 3, pyrrolidine‐1‐carbonitrile]",88.5 ± 1.3,115,
"Cn1c(C(=O)O)cc2sccc21 [compound 464, 4‐methyl‐4H‐thieno[3,2‐b]pyrrole‐5‐carboxylic acid]",,,"HeLa Cells Alamar Blue [1, 3]: 93.5 ± 4.2 percentage of controls; A549 Cells Alamar Blue [2, 4]: 89.4 percentage of controls"
"CNCc1cccnc1 [compound 57, N‐methyl‐N‐(3‐pyridylmethyl)amine]",89.3 ± 9.6,79,
"O=C(O)c1ccc(-c2ccccc2)s1 [compound 649, 5‐phenylthiophene‐2‐carboxylic acid]",122 ± 18.7,141,
"Cc1nc(CC(=O)O)cs1 [compound 243, 2‐(2‐methyl‐1,3‐thiazol‐4‐yl)acetic acid]",99.5 ± 1.1,113,
"Cc1ccc(CO)cc1C [compound 119, (3,4‐dimethylphenyl)methanol]",84.7 ± 15.3,124,
"OCc1ncoc1-c1ccccc1 [compound 397, (5‐phenyl‐1,3‐oxazol‐4‐yl)methanol]",18.2 ± 7.9,56.4,
"N#Cc1ccc(N2CCNCC2)cc1 [compound 518, 4‐Piperazin‐1‐yl‐benzonitrile]",92.1 ± 11,84.7,
"OCc1csc(-c2ccccc2)n1 [compound 557, (2‐phenyl‐1,3‐thiazol‐4‐yl)methanol]",58.1 ± 13.4,78.4,
"Cc1cc(N)ccc1C(C)C.Cl [compound 497, 4‐isopropyl‐3‐methylaniline hydrochloride]",,,"HeLa Cells Alamar Blue [1, 3]: 90.1 ± 2.1 percentage of controls; A549 Cells Alamar Blue [2, 4]: 115.7 percentage of controls"
"CC(=O)Nc1ccc2c(c1)CCCC2=O [compound 644, N1‐(5‐oxo‐5,6,7,8‐tetrahydronaphthalen‐2‐yl)acetamide]",,,"HeLa Cells Alamar Blue [1, 3]: 99.2 ± 7.5 percentage of controls; A549 Cells Alamar Blue [2, 4]: 93.5 percentage of controls"

Compound,"viability at 500 µM [1, 5] [%]","viability at 500 µM [2, 4] [%]",also measured
"Fc1ccc(N2CCNCC2)cc1 [compound 457, 1‐(4‐fluorophenyl)piperazine]",12.7 ± 10.1,74.7,
"Cl.Cl.NCCc1c[nH]cn1 [compound 475, 2‐(1H‐imidazol‐4‐yl)ethylamine dihydrochloride]",,,HeLa Cells Alamar Blue [1]: 95.9 ± 6.6; A549 Cells Alamar Blue [2]: 80.3
"FC(F)(F)c1cc[nH]n1 [compound 114, 3‐(trifluoromethyl)‐1H‐pyrazole]",85.9 ± 6.1,73.8,
"Cc1cc(CN)n(C)n1 [compound 73, (1,3‐dimethyl‐1H‐pyrazol‐5‐yl)methylamine]",,,"HeLa Cells Alamar Blue [1, 3]: 91.3 ± 0.6 percentage of controls; A549 Cells Alamar Blue [2, 4]: 107.6 percentage of controls"
"N#Cc1cccc(-c2ccco2)c1 [compound 338, 3‐(2‐furyl)benzonitrile]",18.5 ± 15.2,57.8,
"OCc1ccc(-n2cccn2)cc1 [compound 385, [4‐(1H‐pyrazol‐1‐yl)phenyl]methanol]",83.4 ± 12.4,118,
"Oc1cccc(N2CCOCC2)c1 [compound 447, 3‐morpholinophenol]",77.8 ± 11.8,62.8,
"Cn1c(=S)oc2ccccc21 [compound 310, 3‐methyl‐1,3‐benzoxazole‐2(3H)‐thione]",103 ± 14.3,104,
"COC(=O)c1cc2ccccc2cn1 [compound 514, methyl isoquinoline‐3‐carboxylate]",79.5 ± 14.3,65.3,
"CCCc1ccc(NC(C)=O)cc1 [compound 426, N1‐(4‐propylphenyl)acetamide]",89.8 ± 10.8,71.7,
"OCC1CCOCC1 [compound 43, tetrahydro‐2H‐pyran‐4‐ylmethanol]",91.9 ± 5.9,79.2,
"CN1CCN(C)C(CO)C1 (stereo not shown) [compound 154, (1,4‐dimethyl‐2‐piperazinyl)methanol]",96.9 ± 6.4,117,
"NCCOc1ccccc1 [compound 122, 2‐phenoxyethylamine]",73.6 ± 5.4,100,
"NC(=S)COc1cccc(Cl)c1 [compound 633, 2‐(3‐chlorophenoxy)ethanethioamide]",46.9 ± 11.1,90.3,
"OCc1nc2ccccc2s1 [compound 312, 1,3‐benzothiazol‐2‐ylmethanol]",80.7 ± 16.2,64.4,
"NC(=O)Cc1ccc(O)cc1 [compound 192, 2‐(4‐hydroxyphenyl)acetamide]",96.9 ± 9.5,44.6,
"COc1ccc(CC#N)cc1 [compound 161, 2‐(4‐methoxyphenyl)acetonitrile]",,88.7,"viability at 500 µM ([1]; Homo sapiens, HeLa, read-out: HeLa Cells Alamar Blue, Supplementary Table 1, compound 0.5 mM, percentage of controls, mean ± SD (n=3) or SE (n=2)): 108 ± 3.1%"
"O=C(O)c1csc2ccccc12 [compound 432, 1‐benzothiophene‐3‐carboxylic acid]",88.5 ± 12.2,55.1,
"Nc1ccc(-c2cccnc2)cc1 [compound 347, 4‐pyridin‐3‐ylaniline]",79.3 ± 2.8,113,
